Results: patent US9393221B2, “Methods and compounds for reducing intracellular lipid storage” (THE GENERAL HOSPITAL CORPORATION, priority 2011, dated 2016)
Counter-ions that a name gives are not always drawn. Like-named read-outs stand apart in the source and are kept apart here. Bridge positions count the residues as written; N and C are the ends. Square brackets hold non-standard residues; d marks the D form. Peptide text beside a SMILES is read from it. * marks the point of attachment. Ileψ(thiazoline)Cys = CC[C@H](C)[C@H](N)C1=N[C@H](C(=O)*)CS1; Sta = CC(C)C[C@H](N)[C@@H](O)CC(=O)O; dOrn = NCCC[C@@H](N)C(=O)O; Isovaleryl = CC(C)CC(=O)*

System: ATGL-KO iPSCs
Assay: High throughput iPSC chemical screening, Oil Red O (ORO) lipid accumulation; as to Z-score: test concentration or dose not given here
Assay type: cell-based, mouse
[1] = normalized ORO level vs DMSO-treated cells, compound present during 7 days differentiation, 96-well, negative = decrease in lipid accumulation

Compound	Z-score [1]	other results
CSc1ccc2c(c1)N(CCC1CCCCN1C)c1ccccc1S2 (centres unmarked) [Thioridazine hydrochloride]	−1.1212	–
O=C(O)CCC(=O)c1ccc(-c2ccccc2)cc1 [Fenbufen]	−0.3877	–
O=C(O)c1ccccc1Nc1cccc(C(F)(F)F)c1 [Flufenamic acid]	−0.8139	–
CCCNC(=O)NS(=O)(=O)c1ccc(Cl)cc1 [Chlorpropamide]	0.199	–
COc1c2c(cc3c1OCO3)CCN(C)C2 [Hydrocotarnine hydrobromide]	−0.8038	–
N#Cc1ccc(C(c2ccc(C#N)cc2)n2cncn2)cc1 [Letrozole]	0.6693	–
COc1c2occc2cc2ccc(=O)oc12 [Methoxy-8-psoralen]	1.942	–
CCn1cc(C(=O)O)c(=O)c2cc(F)c(N3CCNCC3)cc21 [Norfloxacin]	0.6666	–
COC(=O)C1=C(C)NC(C)=C(C(=O)OC(C)C)C1c1cccc2nonc12 (centres unmarked) [Isradipine]	0.2737	–
CC(C)CC(=O)N[C@H](C(=O)N[C@H](C(=O)N[C@@H](CC(C)C)[C@@H](O)CC(=O)N[C@@H](C)C(=O)N[C@@H](CC(C)C)[C@@H](O)CC(=O)O)C(C)C)C(C)C [Pepstatin A] (Isovaleryl-VV[Sta]A[Sta]-OH)	1.261	–
Ifenprodil tartrate	0.8399	–
CCn1cc(C(=O)O)c(=O)c2cnc(N3CCCC3)nc21 [Piromidic acid]	0.2604	–
CCCCOC(=O)c1ccc(N)cc1 [Butamben]	0.2903	–
CCN1C[C@]2(C)CC[C@H](OC)[C@@]34C1[C@]1(OCO[C@@]15C[C@H](OC)[C@H]1C[C@]3(O)[C@@H]5[C@H]1OC)[C@@H](OC(C)=O)[C@H]24 [Deltaline]	−1.2966	–
C[N+]1(C)CCC(=C(c2ccccc2)c2ccccc2)CC1 [Diphemanil methylsulfate]	0.6045	–
CC1=NS(=O)(=O)c2cc(Cl)ccc2N1 [Diazoxide]	0.5969	–
CN[C@@H]1[C@H](O[C@H]2[C@H](O[C@H]3[C@H](O)[C@@H](O)[C@H](NC(=N)N)[C@@H](O)[C@@H]3NC(=N)N)O[C@@H](C)[C@]2(O)CO)O[C@@H](CO)[C@H](O)[C@H]1O [Dihydrostreptomycin sulfate]	1.253	–
Cl.OC1CCCCC1N1CCC(c2ccccc2)CC1 (stereo not drawn) [L(−)-vesamicol hydrochloride]	−1.6146	–
CCN1CCCC1CNC(=O)c1cc(S(N)(=O)=O)ccc1OC (centres unmarked) [Sulpiride]	−0.2187	–
COc1cc(N)c(Cl)cc1C(=O)NC1CCN(CCCOc2ccc(F)cc2)CC1OC (centres unmarked) [Cisapride]	0.02062	–
COC(=O)[C@H]1[C@H]2C[C@@H]3c4[nH]c5cc(OC)ccc5c4CCN3C[C@H]2C[C@@H](OC(=O)/C=C/c2cc(OC)c(OC)c(OC)c2)[C@@H]1OC [Rescinnamin]	1.097	–
CO[C@@]1(NC(=O)C(C(=O)O)c2ccc(O)cc2)C(=O)N2C(C(=O)O)=C(CSc3nnnn3C)CO[C@@H]21 (some centres unmarked) [Moxalactam disodium salt]	−0.7608	–
COc1cc2c3cc1Oc1cc(ccc1O)C[C@@H]1c4c(cc(OC)c(O)c4Oc4ccc(cc4)C[C@@H]3N(C)CC2)CC[N+]1(C)C.Cl.O.O.O.O.O.[Cl-] [Tubocurarine chloride pentahydrate (+)]	0.8961	–
Cc1c(N(C)C)c(=O)n(-c2ccccc2)n1C [Amidopyrine]	0.347	–
CCN(CC)CCNC(=O)COc1ccc(OC)cc1 [Mefexamide hydrochloride]	−0.2169	–
C=C[C@H]1C[N@@]2CC[C@H]1C[C@@H]2[C@@H](O)c1ccnc2ccccc12 [Cinchonine]	−1.1697	–

Compound	Z-score [1]	other results
CC(C)N(CCC(C(N)=O)(c1ccccc1)c1ccccn1)C(C)C (centres unmarked) [Disopyramide]	−1.1535	–
COc1cc2nc(N(C)CCCNC(=O)C3CCCO3)nc(N)c2cc1OC (centres unmarked) [Alfuzosin hydrochloride]	0.4534	–
Cc1cccc(C)c1N=C1NCCCS1 [Xylazine]	−1.0585	–
CCN(CC)CC(=O)Nc1c(C)cccc1C.Cl [LidocaOne hydrochloride]	−0.9429	–
Clc1ccc(C(OCCN2CCCCC2)c2ccccc2)cc1 (centres unmarked) [Cloperastine hydrochloride]	0.7661	Rank in normalized ORO score from screen (glycolytic switch compounds): 863
O=C(NCC1CCCCN1)c1cc(OCC(F)(F)F)ccc1OCC(F)(F)F (centres unmarked) [Flecainide acetate]	−0.9948	–
C[C@]12CC[C@@H]3c4ccc(O)cc4CC[C@H]3[C@@H]1C[C@@H](O)[C@@H]2O [Estriol]	0.06999	–
CN1CCN(CCCN2c3ccccc3Sc3ccc(C(F)(F)F)cc32)CC1 [Trifluoperazine dihydrochloride]	0.5386	–
CCn1cc(C(=O)O)c(=O)c2cnc(N3CCNCC3)nc21 [Pipemidic acid]	−1.4165	–
N[C@@H](C(=O)N[C@@H]1C(=O)N2C(C(=O)O)=C(Cl)CS[C@H]12)c1ccccc1 [Cefaclor]	−0.5619	–
CS(=N)(=O)CC[C@H](N)C(=O)O (some centres unmarked) [Methionine sulfoximine (L)]	−0.2829	–
N[C@@H](Cc1cc(I)c(Oc2ccc(O)c(I)c2)c(I)c1)C(=O)O [Liothyronine]	0.1954	–
CC1=C2[C@H]3OC(=O)[C@@H](C)[C@@H]3CC[C@@]2(C)C=CC1=O [alpha-Santonin]	−0.8908	–
CC[N+](CC)(CC)CCOc1cccc(OCC[N+](CC)(CC)CC)c1OCC[N+](CC)(CC)CC [Gallamine triethiodide]	0.8644	–
C[C@H]1[C@H](NC(=O)/C(=N\OC(C)(C)C(=O)O)c2csc(N)n2)C(=O)N1S(=O)(=O)O [Aztreonam]	0.1728	–
COc1ccc(-c2ccc(=N)n(CCCC(=O)O)n2)cc1 [Gabazine]	−0.1416	–
CC(N/C(=N\C#N)Nc1ccncc1)C(C)(C)C (centres unmarked) [Pinacidil]	0.3162	–
C[C@@H]1C(=O)O[C@H]2C[C@@]34[C@H]5C[C@@H](C(C)(C)C)[C@]36[C@@H](OC(=O)[C@@H]6O)O[C@@]4(C(=O)O5)[C@]21O [Ginkgolide A]	−0.1024	–
C[C@H]1CC[C@]2(NC1)O[C@H]1C[C@H]3[C@@H]4CC[C@H]5C[C@@H](O)CC[C@]5(C)[C@H]4CC[C@]3(C)[C@H]1[C@@H]2C [Tomatidine]	−0.7378	–
CCOc1ccc(Cc2nccc3cc(OCC)c(OCC)cc23)cc1OCC [Ethaverine hydrochloride]	17.3528	–
C[C@@H]1CCC[C@H](C)N1NC(=O)c1ccc(Cl)c(S(N)(=O)=O)c1 [Clopamide]	−0.9945	–
COc1nc(C)nc(Cl)c1N=C1NCCN1 [Moxonidine]	−0.6893	–
Cytisine (−)	–	Z-score: 1.049
NC(=O)c1ncn([C@@H]2O[C@H](CO)[C@@H](O)[C@H]2O)n1 [Ribavirin]	−1.5081	–
Cc1c(-c2ccccc2)oc2c(C(=O)OCCN3CCCCC3)cccc2c1=O [Flavoxate hydrochloride]	0.3535	–
COc1cc2c(cc1OC)-c1cc3ccc(OC)c(OC)c3c[n+]1CC2 [Palmatine chloride]	6.905	–

Compound	Z-score [1]	other results
CCCCCCCCNC(C)C(O)c1ccc(SC(C)C)cc1 (centres unmarked) [Suloctidil]	21.8147	–
O=C(/C=C/C=C/c1ccc2c(c1)OCO2)N1CCCCC1 [Piperine]	1.588	–
(−)-MK 801 hydrogen maleate	−0.2074	–
c1ccc(CC2=NCCN2)cc1 [Tolazoline hydrochloride]	0.3256	–
C[C@H]1NC(=O)NC1=O [Methylhydantoin-5-(D)]	−0.6204	–
CCCCc1oc2ccccc2c1C(=O)c1cc(I)c(OCCN(CC)CC)c(I)c1 [Amiodarone hydrochloride]	0.1139	–
COc1cc(/C=C/C(=O)N2CCC=CC2=O)cc(OC)c1OC [Piperlongumine]	16.6479	–
O.O.O=c1c(O)c(-c2ccc(O)c(O)c2)oc2cc(O)cc(O)c12 [Quercetine dihydrate]	−0.8659	–
CCOC(=O)O[C@]1(C(=O)COC(=O)CC)CC[C@H]2[C@@H]3CCC4=CC(=O)C=C[C@]4(C)[C@H]3[C@@H](O)C[C@@]21C [Prednicarbate]	−0.9408	–
CC[C@H](C)[C@H](N)C1=N[C@H](C(=O)N[C@@H](CC(C)C)C(=O)N[C@H](CCC(=O)O)C(=O)N[C@H](C(=O)N[C@H]2CCCCNC(=O)[C@H](CC(N)=O)NC(=O)[C@@H](CC(=O)O)NC(=O)[C@H](Cc3cnc[nH]3)NC(=O)[C@@H](Cc3ccccc3)NC(=O)[C@H]([C@@H](C)CC)NC(=O)[C@@H](CCCN)NC2=O)[C@@H](C)CC)CS1 [Bacitracin] ({Ileψ(thiazoline)Cys}-L[dE]IK[dOrn]I[dF]H[dD]N; lactam 4-C)	−1.0707	–
CCCc1ncc(C[n+]2ccccc2C)c(N)n1 [Amprolium hydrochloride]	0.8329	–
O.O=C1C(O)=C(O)C(=O)C(O)=C1O [Tetrahydroxy-1,4-quinone monohydrate]	−1.5885	–
COC(=O)C1=CCCN(C)C1 [Arecoline hydrobromide]	0.1373	–
COCC(=O)Nc1c(I)c(C(=O)NCC(O)CO)c(I)c(C(=O)N(C)CC(O)CO)c1I (centres unmarked) [Iopromide]	0.2481	–
CC[C@H](c1ccc(O)cc1)[C@@H](CC)c1ccc(O)cc1 [Hexestrol]	−1.0339	–
CC(NCCc1ccc(O)cc1)C(O)c1ccc(O)cc1 (centres unmarked) [Ritodrine hydrochloride]	0.3787	–
COc1ccc([C@@H]2CC(=O)c3c(O)cc(O)cc3O2)cc1O [Hesperetin]	−1.3358	–
CN1C(=O)OC(C)(C)C1=O [Trimethadione]	−0.8958	–
C[N+]1(C)C[C@H](O)C[C@H]1C(=O)[O-] [Betonicine]	0.1235	–
Nc1nc2c(ncn2COCCO)c(=O)[nH]1 [Acyclovir]	−0.0091	–
O=C(CCCN1CCC(O)(c2ccc(Cl)cc2)CC1)c1ccc(F)cc1 [Haloperidol]	−1.1776	–
C[C@](N)(Cc1ccc(O)c(O)c1)C(=O)O [Methyldopa (L,−)]	0.02395	–
COc1cc(C(=O)NCc2ccc(OCCN(C)C)cc2)cc(OC)c1OC [Trimethobenzamide hydrochloride]	1.06	–
C#C[C@]1(O)CC[C@H]2[C@@H]3CCC4=Cc5oncc5C[C@]4(C)[C@H]3CC[C@@]21C [Danazol]	−1.2973	–
